“And” between values parts separate entries of the source, which are not always exact repeats. Identical values can stand only once. Like-named read-outs stand apart in the source and are kept apart here. Where a SMILES comes first, the peptide text is derived from it.
Columns and labels:
[1] = Blood/brain exposure to NBP-14 after intranasal administration (PK assessment); type: in vivo, mice; conditions: for level at 0.5 h / tissue level at time at 0.5 h: 5XFAD, mouse, inhaled or intranasal; for level at 0.5 h: blood, read-out: Blood Concentration; for tissue level at time at 0.5 h: brain, read-out: Brain Concentration
Experimental: Assessment of PK profile for NBP14, 10mg/kg, to allow PK/PD correlations • Satellite group of mice at T0W and T6W. • Mice from NOR test at T14W.
Group 3 TG NBP14: 5XFAD mice (n=3 for each PK) treated with NBP14 at the dose 10 mg/kg.
After 1 single treatment at the start of treatment (T0W) in a satellite group of mice.
After 6 weeks of treatment (T6W) in a satellite group of mice. The day of PK profile mice were treated with NBP14.
After 14 weeks of treatment (14W) in 2 group of mice from NOR cohorts.
On the day of PK study, mice were treated with NBP14 at 10mg/kg (IN) and blood/brain collected at 30 minutes after treatment.
An additional group of mice was subjected to blood/brain collection for NBP14 exposure without treatment on the same day at the terminal time point, after 14 weeks of treatment, to evaluate an eventual accumulation of test compound (table 1).
The inventors measured the concentration of nasally applied NBP-14 in the blood and the brain of mice, to determine whether NBP-14 was capable of crossing the blood brain barrier when applied intranasally.

[2] = tested on: Iba1 (activated microglia); experiment: Brain immunohistochemistry, gliosis (Iba1-positive cells); type: in vivo, mice
Experimental: (§1) Group 2 TG-VEH: 5xFAD mice treated with vehicle of formulation (saline).
(§2) Group 3 TG-NBP14: 5xFAD mice treated with NBP-14 at the dose 10 mg/kg.
(§3) Histological Time-Points: • After 1 single treatment at the start of treatment, in a satellite group of mice (T0W). • After 6 weeks of treatment (T6W) in a satellite group of mice. • After 14 weeks of treatment (14W) in a group of mice from NOR cohorts (analysis ongoing).
(§4) Brain samples from all Tg-5XFAD mice were fixed, cryosectioned and immunostained for detection of amyloid, phosphorylated Tau and gliosis using the antibodies listed in Table 1.
(§5) Serial sections were collected and every sixth section starting at the midline were immunostained for markers of AD pathology. A total of six sections per animal were used for quantitative analysis.
(§6) Having shown the ability of NBP-14 to reverse the cognitive decline observed in Tg-5XFAD mice as discussed above, the inventors then sought to determine the structural or physiological changes occurring in the brains of mice treated with NBP-14. […]

phosphorylated Tau = experiment: Brain immunohistochemistry, phosphorylated Tau (AT180, AT8); type: in vivo, mice; conditions: for Intracellular phosphorylated Tau immunoreactivity (AT180): hippocampus and cortex of 5XFAD mice
Experimental: as §1, §2, §3, §4, §5
(§7) Having shown the ability of NBP-14 to reverse the cognitive decline observed in Tg-5XFAD mice as discussed above, the inventors then sought to determine the structural or physiological changes occurring in the brains of mice treated with NBP-14. The inventors utilised histological staining of the brain to determine the changes of various brain-located markers (i.e. phosphorylated Tau, NeuN, (3-amyloid, and Ibal) that are associated with cognitive decline in both 5XFAD mice and also mice that had been treated with NBP-14. These biomarkers were measured after acute treatment with NBP-14 and also six weeks after treatment.

5xFAD mice = experiment: Clinical signs during intranasal treatment of 5xFAD mice; type: in vivo; conditions: 30 mg/kg intranasal, dose lowered to 10 mg/kg from 2nd week
Experimental: Intranasal (IN, nose to brain) twice a week for 14 weeks (Volume of administration 10 μL/.

β-amyloid = experiment: Brain immunohistochemistry, β-amyloid (6E10 antibody); type: in vivo, mice; conditions: for Mean intensity of β-amyloid (6E10) compared to vehicle: 6 weeks of treatment
Experimental: as §1, §2, §3, §4, §5, §7

transgenic Tg-5XFAD mice [3] = experiment: Behavioural scoring of grooming/sitting during NOR procedure; type: in vivo; conditions: chronic treatment, T1 and T2 phase of NOR procedure, 10 min each
Experimental: Grooming/sitting/locomotion was measured on the mice subjected to NOR testing [i.e., Wild Type data included at 14 weeks post treatment].
Behavioural scoring was assessed during the T1 (familiar) and T2 (novel) phase of NOR procedure (over 10 min each phase).

transgenic Tg-5XFAD mice [4] = experiment: Novel Object Recognition (NOR) test for cognitive readout; type: in vivo
From the text: Assessment of Novel Object Recognition (NOR) test at the following time points: • T0W, basal NOR behaviour immediately before starting of the experiment. • T6W, 6 weeks after starting of treatment. • T14W, 14 weeks after starting of treatment.
Group 1 WT mice (n=15) used as control animal during the experimental procedure. No subject to treatment.
Group 2 TG VEH: 5XFAD mice (n=14) treated with vehicle of formulation (saline).
Group 3 TG NBP14: 5XFAD mice (n=28) treated with NBP14 at the dose 10 mg/kg.
NOR behavioural assessment time points: • Immediately before start of treatment (T0W) • 6 weeks after start of treatment (T6W) • 14 weeks after start of treatment (T14W)
Behaviour recorded on video for subsequent scoring for the object exploration. Object investigation has been defined as directing the nose towards the object (i.e., sniffing or touching with the nose) at a distance of 2 cm or less. Climbing and sitting on the objects is not considered to be object examination.
A criterion of minimal level of object exploration was used in the study to exclude animals with naturally low levels of spontaneous exploration: mice having a minimal level of object exploration of lOs during the test trail will be included in the study.
Results were expressed as the total time spent (seconds) by animal towards the objects. The recognition index (RI) was also calculated as follows: (time exploring the novel object)/(time exploring novel+familiar)*100.
The inventors utilised a “novel object recognition” test, which measures the difference of the time spent exploring an unknown (i.e. novel) object versus a known or familiar object to determine the ability of mice to discriminate between novel and familiar objections that can be used as in indication of memory. The inventors used this test to determine the ability of NBP-14 to reverse memory decline in the transgenic mouse, Tg 5XFAD, predisposed to develop amyloid precursor protein (APP) and therefore amyloid plaques, and ultimately, dementia.
The inventors then determined the recognition index of mice. A recognition index above 50% reflects the ability of mice to explore an unfamiliar object (novel) than a recently presented object.

NeuN positive neurons = experiment: Brain immunohistochemistry, neuronal cell count (NeuN); type: in vivo, mice; conditions: cortex and hippocampus
Experimental: as §1, §2, §3, §4, §5, §6

[5] = 10 mg/kg, 5XFAD mice, 10 mg/kg intranasal twice a week, T = 14W [terminal], sampling 30 min after administration
[6] = T = 14W [terminal], treated 14 weeks but no treated last day
[7] = acute treatment, cortex and hippocampus, visual inspection

Structure (SMILES): CSCC[C@@H]1NC(=O)[C@H](Cc2ccc(O)cc2)NC(=O)[C@H](CO)NC(=O)[C@H](CO)NC(=O)[C@H](Cc2c[nH]c3ccccc23)NC(=O)[C@H](CCCNC(=N)N)NC(=O)[C@H](Cc2c[nH]cn2)NC(=O)[C@H](Cc2ccccc2)NC(=O)[C@H](CCC(=O)O)NC(=O)[C@H](C)NC(=O)[C@H](CCCCN)NC(=O)[C@H](Cc2c[nH]c3ccccc23)NC(=O)[C@H](Cc2c[nH]cn2)NC(=O)[C@H](C(C)C)NC1=O [NBP-14] (HELM PEPTIDE1{A.E.F.H.R.W.S.S.Y.M.V.H.W.K}$PEPTIDE1,PEPTIDE1,1:R1-14:R2$$$V2.0)
- Brain Concentration ([1]; 5XFAD mice, 10 mg/kg intranasal, T = 0 (single treatment), sampling 30 min after administration): bql
- level at 0.5 h [1, 5]: 202 ng/mL
- level at 0.5 h ([1]; 10 mg/kg, 5XFAD mice, 10 mg/kg intranasal, T = 0 (single treatment), sampling 30 min after administration): 44.5 ng/mL
- tissue level at time at 0.5 h ([1]; 10 mg/kg, 5XFAD mice, 10 mg/kg intranasal twice a week, T = 6W [intermediate], sampling 30 min after administration): 19.3 ng/g
- tissue level at time at 0.5 h [1, 5]: 53 ng/g
- BB Ratio ([1]; T = 14W [terminal], 10 mg/kg intranasal, 30 min after administration, 10 mg/kg): 0.26 and 0.21 and 0.30
- Blood Concentration [1, 6]: bql
- Brain Concentration [1, 6]: bql
- Detection of NBP-14 in the brain ([1]; after acute treatment): no NBP-14 was observed in the brain
- Detection of NBP-14 in the brain ([1]; intranasal, after both 6 weeks and 14 weeks of treatment): detected in the brain
- Accumulation of the compound ([1]; mice treated for 14 weeks, not treated on the day of blood/brain collection): no accumulation
- Gliosis (Iba1-positive cells) compared to vehicle ([2]; 6 weeks of treatment, hippocampus): significant (P<0.005) decrease
- Total number or density of Iba1-positive cells compared to vehicle [2, 7]: no differences
- Intracellular phosphorylated Tau immunoreactivity (AT180) (phosphorylated Tau; 6 weeks treatment): no specific intracellular phosphorylated Tau immunoreactivity was detected
- pTau detected with AT8 (pS202/pT205) in non-neuronal (NeuN negative) cells (phosphorylated Tau; 14 weeks chronic treatment, cortex and hippocampus, very low levels seen in vehicle-treated mice): not in mice treated with NBP-14
- pTau detection (AT180) (phosphorylated Tau; 14 weeks chronic treatment, hippocampus, cortex, basal forebrain): no pTau (gold) was detected
- Intracellular phosphorylated Tau immunoreactivity (AT180) (phosphorylated Tau; acute treatment): no specific intracellular phosphorylated Tau immunoreactivity was detected
- Clinical signs (5xFAD mice): relevant clinical sign
- Mean intensity of β-amyloid (6E10) compared to vehicle (β-amyloid; cortex (P<0.05)): significant decrease
- Mean intensity of β-amyloid (6E10) compared to vehicle (β-amyloid; hippocampus (P<0.005)): significant decrease
- Extracellular amyloid plaques compared to vehicle-treated controls (β-amyloid; 14 weeks, cortex, hippocampus and basal forebrain): significantly reduced
- Mean intensity of 6E10 (Aβ) compared to vehicle (β-amyloid; [7]): No differences
- Reduction in sitting behaviour seen in vehicle-treated Tg-5XFAD mice (transgenic Tg-5XFAD mice [3]): reversed
- Recognition index (RI) compared to vehicle-treated 5xFAD mice (transgenic Tg-5XFAD mice [4]; 10 mg/kg, terminal time point (14 weeks), n=27): statistical significant difference
- Time exploring the novel versus familiar object (transgenic Tg-5XFAD mice [4]; 5XFAD mice, 10 mg/kg intranasal twice a week, 6 weeks after treatment, n=28): no significant difference
- Time spent exploring novel object versus familiar object (transgenic Tg-5XFAD mice [4]; 5XFAD mice, 10 mg/kg intranasal twice a week, 14 weeks after treatment, n=27): statistically significant difference
- Cognitive performance compared to 5XFAD vehicle-treated mice (transgenic Tg-5XFAD mice [4]; 6 week time point of NOR testing): no statistically significant differences
- Total number or density of NeuN positive neurons compared to vehicle (NeuN positive neurons; 6 weeks of treatment): no differences
- Total number or density of NeuN positive neurons compared to vehicle (NeuN positive neurons; acute treatment): no differences

Source: US20240058424A1, “NBP-14 FOR TREATING ALZHEIMER'S ASSOCIATED WITH DOWN'S SYNDROME” (NEURO-BIO LTD, priority 2020, published 2024)
